In ChEMBL document CHEMBL1159248, “Tyrosinase inhibitors from Bolivian medicinal plants” (J Nat Prod, 1995) one finds ID50, Activity and inhibition data, which are given here for 6 compounds.

Test [1] has as its target T1, Tyrosinase (Agaricus bisporus) (UniProt O42713).
T1 sequence (whole entry): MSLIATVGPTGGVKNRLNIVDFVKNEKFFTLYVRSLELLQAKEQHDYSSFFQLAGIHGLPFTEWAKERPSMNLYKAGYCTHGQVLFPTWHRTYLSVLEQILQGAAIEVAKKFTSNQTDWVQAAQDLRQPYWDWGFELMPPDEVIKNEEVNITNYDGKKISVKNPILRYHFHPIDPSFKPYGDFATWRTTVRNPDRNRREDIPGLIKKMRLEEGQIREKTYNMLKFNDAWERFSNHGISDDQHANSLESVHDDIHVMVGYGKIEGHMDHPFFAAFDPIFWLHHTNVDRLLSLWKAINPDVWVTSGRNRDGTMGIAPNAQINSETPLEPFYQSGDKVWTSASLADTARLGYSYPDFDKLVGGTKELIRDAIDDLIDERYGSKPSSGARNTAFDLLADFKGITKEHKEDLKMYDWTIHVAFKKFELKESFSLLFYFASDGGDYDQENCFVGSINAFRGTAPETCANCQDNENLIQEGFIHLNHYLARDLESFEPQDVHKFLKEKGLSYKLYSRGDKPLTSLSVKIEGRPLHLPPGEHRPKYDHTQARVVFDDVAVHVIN
As to the kind of experiment: Inhibition of mushroom tyrosinase assessed as L-3,4-dihydroxyphenylalanine oxidation.

The target in test [2] is T1, Tyrosinase (Agaricus bisporus). The experiment in a line: Competitive inhibition of mushroom tyrosinase assessed as L-3,4-dihydroxyphenylalanine oxidation.
Test [3] has the same target. The experiment in a line: Inhibition of mushroom tyrosinase assessed as L-3,4-dihydroxyphenylalanine at 100 ug/ml.

The structures appear in SMILES notation. Calls of active or inactive are those of the source. The calls are words filed in the database; no cut-off is given here.

Consider `O=C(/C=C/c1ccc(O)cc1)OC[C@H]1O[C@@H](Oc2cc(O)c3c(=O)c(O)c(-c4ccc(O)cc4)oc3c2)[C@H](O)[C@@H](O)[C@@H]1O`, for which the ID50 in test [1] came out at 390 µM.
Consider `O=c1c(O)c(-c2ccc(O)c(O)c2)oc2cc(O)cc(O)c12`, for which the ID50 in test [1] is 70 µM. The result in test [2] was Active.
In the same order, the values of `O=C(O)c1ccc(O)cc1` are 1900 µM and “Active”.
As to `COc1cc(/C=C/C(=O)OC[C@H]2O[C@@H](Oc3cc(O)c4c(=O)c(O)c(-c5ccc(O)cc5)oc4c3)[C@H](O)[C@@H](O)[C@@H]2O)ccc1O`, the ID50 in test [1] stood at 440 µM.
As to `O=C(O[C@H]1O[C@@H]2COC(=O)c3cc(O)c(O)c(O)c3-c3c(cc(O)c(O)c3O)C(=O)O[C@H]2[C@@H]2OC(=O)c3cc(O)c(O)c(O)c3-c3c(cc(O)c(O)c3O)C(=O)O[C@@H]12)c1cc(O)c(O)c(Oc2c(C(=O)O[C@H]3O[C@@H]4COC(=O)c5cc(O)c(O)c(O)c5-c5c(cc(O)c(O)c5O)C(=O)O[C@H]4[C@@H]4OC(=O)c5cc(O)c(O)c(O)c5-c5c(cc(O)c(O)c5O)C(=O)O[C@@H]34)cc(O)c(O)c2O)c1`, the ID50 in test [1] came out at 61 µM.
Regarding `O=c1cc(-c2ccc(O[C@@H]3O[C@H](CO)[C@@H](O)[C@H](O)[C@H]3O)c(O)c2)oc2cc(O)cc(O)c12`, the inhibition in test [3] was 100%.
